From the supplement of paper PMC10307832

How the values were obtained:
Test in all cases: relative viability (nuclei count vs DMSO), 5 days (fraction); higher = more cells survive
NCI-H596 = test system: NCI-H596
Procedure, shortened: (§1)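 Relative viability divides the nuclei count in treated wells by that in vehicle wells. Lung cancer cell lines were seeded in 1536-well plates, dosed by pin tool the next day, and fixed and stained after 5 days in one step with final 0.05% Triton X-100, 1% formaldehyde and 1 ug/ml Hoechst. Dosing was a single drug or a fixed anchor-drug dose plus five library-drug doses (not always all listed) in √10 steps, and values are medians of duplicate plates imaged at 4×.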

PC-14 = test system: PC-14
Procedure, shortened: as §1

NCI-H1915 = test system: NCI-H1915
Procedure, shortened: as §1

NCI-H520 = test system: NCI-H520
Procedure, shortened: as §1

NCI-H460 = test system: NCI-H460
Procedure, shortened: as §1

LXF-289 = test system: LXF-289
Procedure, shortened: as §1

NCI-H1563 = test system: NCI-H1563
Procedure, shortened: as §1

NCI-H441 = test system: NCI-H441
Procedure, shortened: as §1

NCI-H1792 = test system: NCI-H1792
Procedure, shortened: as §1

NCI-H3122 = test system: NCI-H3122
Procedure, shortened: as §1

SW 900 = test system: SW 900
Procedure, shortened: as §1

NCI-H322M = test system: NCI-H322M
Procedure, shortened: as §1

RERF-LC-KJ = test system: RERF-LC-KJ
Procedure, shortened: as §1

NCI-H522 = test system: NCI-H522
Procedure, shortened: as §1

NCI-H1355 = test system: NCI-H1355
Procedure, shortened: as §1

NCI-H661 = test system: NCI-H661
Procedure, shortened: as §1

SK-MES-1 = test system: SK-MES-1
Procedure, shortened: as §1

NCI-H2347 = test system: NCI-H2347
Procedure, shortened: as §1

LCLC-103H = test system: LCLC-103H
Procedure, shortened: as §1

NCI-H1755 = test system: NCI-H1755
Procedure, shortened: as §1

NCI-H1651 = test system: NCI-H1651
Procedure, shortened: as §1

Nc1ccn([C@@H]2O[C@H](CO)[C@@H](O)[C@@H]2O)c(=O)n1 [Cytarabine] + Nc1nc2[nH]cc(CCc3ccc(C(=O)N[C@@H](CCC(=O)O)C(=O)O)cc3)c2c(=O)[nH]1 [Pemetrexed] (partner 0.2 µM)
relative viability (NCI-H596; first compound 0.005 µM): 0.41
relative viability (NCI-H596; first compound 0.01581 µM): 0.485
relative viability (NCI-H596; first compound 0.05 µM): 0.472
relative viability (NCI-H596; first compound 0.1581 µM): 0.379
relative viability (NCI-H596; first compound 0.5 µM): 0.349
relative viability (PC-14; first compound 0.005 µM): 0.183
relative viability (PC-14; first compound 0.01581 µM): 0.156
relative viability (PC-14; first compound 0.05 µM): 0.187
relative viability (PC-14; first compound 0.1581 µM): 0.0581
relative viability (PC-14; first compound 0.5 µM): 0.0565
relative viability (NCI-H1915; first compound 0.005 µM): 0.506
relative viability (NCI-H1915; first compound 0.01581 µM): 0.563
relative viability (NCI-H1915; first compound 0.05 µM): 0.54
relative viability (NCI-H1915; first compound 0.1581 µM): 0.45
relative viability (NCI-H1915; first compound 0.5 µM): 0.333
relative viability (NCI-H520; first compound 0.005 µM): 0.605
relative viability (NCI-H520; first compound 0.01581 µM): 0.65
relative viability (NCI-H520; first compound 0.05 µM): 0.639
relative viability (NCI-H520; first compound 0.1581 µM): 0.528
relative viability (NCI-H520; first compound 0.5 µM): 0.398
relative viability (NCI-H460; first compound 0.005 µM): 0.0718
relative viability (NCI-H460; first compound 0.01581 µM): 0.0671
relative viability (NCI-H460; first compound 0.05 µM): 0.0853
relative viability (NCI-H460; first compound 0.1581 µM): 0.0459
relative viability (NCI-H460; first compound 0.5 µM): 0.037
relative viability (LXF-289; first compound 0.005 µM): 0.729
relative viability (LXF-289; first compound 0.01581 µM): 0.864
relative viability (LXF-289; first compound 0.05 µM): 0.808
relative viability (LXF-289; first compound 0.1581 µM): 0.36
relative viability (LXF-289; first compound 0.5 µM): 0.268
relative viability (NCI-H1563; first compound 0.005 µM): 0.823
relative viability (NCI-H1563; first compound 0.01581 µM): 0.727
relative viability (NCI-H1563; first compound 0.05 µM): 0.637
relative viability (NCI-H1563; first compound 0.1581 µM): 0.505
relative viability (NCI-H1563; first compound 0.5 µM): 0.44
relative viability (NCI-H441; first compound 0.005 µM): 0.273
relative viability (NCI-H441; first compound 0.01581 µM): 0.251
relative viability (NCI-H441; first compound 0.05 µM): 0.331
relative viability (NCI-H441; first compound 0.1581 µM): 0.226
relative viability (NCI-H441; first compound 0.5 µM): 0.144
relative viability (NCI-H1792; first compound 0.01581 µM): 0.672
relative viability (NCI-H1792; first compound 0.05 µM): 0.751
relative viability (NCI-H1792; first compound 0.1581 µM): 0.182
relative viability (NCI-H1792; first compound 0.5 µM): 0.115
relative viability (NCI-H3122; first compound 0.005 µM): 0.207
relative viability (NCI-H3122; first compound 0.01581 µM): 0.196
relative viability (NCI-H3122; first compound 0.05 µM): 0.227
relative viability (NCI-H3122; first compound 0.1581 µM): 0.381
relative viability (NCI-H3122; first compound 0.5 µM): 0.156
relative viability (SW 900; first compound 0.005 µM): 0.432
relative viability (SW 900; first compound 0.01581 µM): 0.499
relative viability (SW 900; first compound 0.05 µM): 0.441
relative viability (SW 900; first compound 0.1581 µM): 0.179
relative viability (SW 900; first compound 0.5 µM): 0.143
relative viability (NCI-H322M; first compound 0.005 µM): 0.609
relative viability (NCI-H322M; first compound 0.01581 µM): 0.628
relative viability (NCI-H322M; first compound 0.05 µM): 0.572
relative viability (NCI-H322M; first compound 0.1581 µM): 0.408
relative viability (NCI-H322M; first compound 0.5 µM): 0.384
relative viability (RERF-LC-KJ; first compound 0.005 µM): 0.453
relative viability (RERF-LC-KJ; first compound 0.01581 µM): 0.502
relative viability (RERF-LC-KJ; first compound 0.05 µM): 0.381
relative viability (RERF-LC-KJ; first compound 0.1581 µM): 0.34
relative viability (RERF-LC-KJ; first compound 0.5 µM): 0.249
relative viability (NCI-H522; first compound 0.005 µM): 0.942
relative viability (NCI-H522; first compound 0.01581 µM): 0.846
relative viability (NCI-H522; first compound 0.05 µM): 0.631
relative viability (NCI-H522; first compound 0.1581 µM): 0.578
relative viability (NCI-H522; first compound 0.5 µM): 0.455
relative viability (NCI-H1355; first compound 0.005 µM): 0.883
relative viability (NCI-H1355; first compound 0.01581 µM): 0.988
relative viability (NCI-H1355; first compound 0.05 µM): 0.821
relative viability (NCI-H1355; first compound 0.1581 µM): 0.553
relative viability (NCI-H1355; first compound 0.5 µM): 0.324
relative viability (NCI-H661; first compound 0.005 µM): 0.94
relative viability (NCI-H661; first compound 0.01581 µM): 0.849
relative viability (NCI-H661; first compound 0.05 µM): 0.851
relative viability (NCI-H661; first compound 0.1581 µM): 0.609
relative viability (NCI-H661; first compound 0.5 µM): 0.373
relative viability (SK-MES-1; first compound 0.005 µM): 0.684
relative viability (SK-MES-1; first compound 0.01581 µM): 0.595
relative viability (SK-MES-1; first compound 0.05 µM): 0.336
relative viability (SK-MES-1; first compound 0.1581 µM): 0.233
relative viability (SK-MES-1; first compound 0.5 µM): 0.207
relative viability (NCI-H2347; first compound 0.005 µM): 0.392
relative viability (NCI-H2347; first compound 0.01581 µM): 0.522
relative viability (NCI-H2347; first compound 0.05 µM): 0.439
relative viability (NCI-H2347; first compound 0.1581 µM): 0.44
relative viability (NCI-H2347; first compound 0.5 µM): 0.391
relative viability (LCLC-103H; first compound 0.005 µM): 0.458
relative viability (LCLC-103H; first compound 0.01581 µM): 0.467
relative viability (LCLC-103H; first compound 0.05 µM): 0.497
relative viability (LCLC-103H; first compound 0.1581 µM): 0.422
relative viability (LCLC-103H; first compound 0.5 µM): 0.456
relative viability (NCI-H1755; first compound 0.005 µM): 0.472
relative viability (NCI-H1755; first compound 0.01581 µM): 0.453
relative viability (NCI-H1755; first compound 0.05 µM): 0.381
relative viability (NCI-H1755; first compound 0.1581 µM): 0.336
relative viability (NCI-H1755; first compound 0.5 µM): 0.351
relative viability (NCI-H1651; first compound 0.005 µM): 0.479
relative viability (NCI-H1651; first compound 0.01581 µM): 0.569
relative viability (NCI-H1651; first compound 0.05 µM): 0.223
relative viability (NCI-H1651; first compound 0.1581 µM): 0.451
relative viability (NCI-H1651; first compound 0.5 µM): 0.221
